Results taken from paper PMC9545474, “Anticancer Water‐Soluble Organoruthenium Complexes: Synthesis and Preclinical Evaluation” (Chembiochem, 2022).

Experiments:
[1] = tested on: PNT2 non-cancerous human prostate cells; experiment: 24-hour MTT chemosensitivity assay with 72-hour recovery, PNT2; format: cell-based; conditions: 24 h exposure, 72 h recovery, MTT; read-out: IC50 values ±SD, PNT2
Procedure: (§1) Chemosensitivity studies were undertaken using a 24‐hour MTT assay, with a 72‐hour recovery period. The IC50 values were determined against ovarian A2780 (cisplatin‐sensitive) and A2780cisR (cisplatin‐resistant) cancer cell lines, non‐small‐cell lung H460 cancer cell line, and normal prostate PNT2 cell line, exposed to each of compounds 4–8, cisplatin or the phosphine ligands (Table 1 and S4, Figures S29–S31). […] This is unusual but can be related to solubility issues not visible for the naked eye and thus hindering its activity in cells. […] When tested on their own, the phosphine ligands are not active below 100 μM for all four cell lines. […] This therefore prevents comparison with the well‐known RAPTA family, and more especially with RAPTA−C which bears a PTA ligand and a p‐cym ligand, making this complex relatively similar in terms of geometry with complex 4.[21] […] This confirms the interest of the sulfur coordinating atom in terms of cytotoxicity for organoruthenium complexes.[23]
(§2) Chemosensitivity assay: In vitro chemosensitivity tests were performed against A2780, A2780cisR, PNT2 and H460 cells. Cells were routinely maintained as monolayer cultures in RPMI 1640 medium supplemented with 10 % foetal calf serum, penicillin (100 I.U./mL) and streptomycin (100 μg/mL), sodium pyruvate (1 mM) and L‐glutamine (2 mM). For chemosensitivity studies, cells were seeded in 96‐well plates at a concentration of 7.5×10^3 cells per well and the plates were incubated for 24 h at 37 °C and a 5 % CO2 humidified atmosphere prior to drug exposure.
(§3) Complexes were dissolved in either DMSO (complexes 4, 5, and 8) or PBS (complexes 6 and 7) to provide stock solutions which were further diluted with media to provide a range of final concentrations. Drug‐media solutions were added to cells (the final concentration of DMSO was less than 1 % (v/v) in all cases) and incubated for 24 h at 37 °C and a 5 % CO2 humidified atmosphere. The drug‐media solution was removed from the wells and the cells were washed with PBS (100 μL, twice) and 200 μL of complete fresh media were added to each well. The plates were further incubated for 72 h at 37 °C and a 5 % CO2 humidified atmosphere to allow for a period of recovery. 3‐(4,5‐dimethylthiazol‐2‐yl)‐2,5‐diphenyltetrazolium bromide (MTT) (40 μL, 2.5 mg/mL) was added to each well and plates were incubated for 2 h. All solutions were then removed and 100 μL of DMSO was added to each well in order to dissolve the purple formazan crystals. A Thermo Scientific Multiskan EX microplate photometer was used to measure the absorbance in each well at 570 nm. Cell survival was determined as the absorbance of treated cells divided by the absorbance of controls and expressed as a percentage. The IC50 values were determined from plots of % survival against drug concentration. Each experiment was repeated in triplicates of triplicates and a mean value was obtained and stated as IC50 (μM) ± SD. Untreated cells were used as a negative control, and cells treated with cisplatin were used as a positive control.

A2780 cells = experiment: FITC annexin-V / PI apoptosis assay by flow cytometry; format: cell-based, human; conditions: A2780, 24 h, complexes 2×IC50, doxorubicin 0.5 µM
Text: Annexin V‐FITC and propidium iodide (PI) have been used to distinguish between viable cells (Q1‐LL), early apoptotic cells (Q1‐LR), late apoptotic cells (Q1‐UR), and necrotic cells (Q1‐UL). […] Both complexes 6 and 8 induce apoptosis of A2780 cells and treatment with the complexes results in 99.6 % and 95.4 % of the cells in late apoptosis, respectively.
Figure 9 Flow cytometry analysis of A2780 cells exposed to complexes 6 or 8 at twice the IC50 concentration compared to a negative control. FITC reads annexin fluorescence and PE reads propidium iodide. Abbreviations: Q1‐UL=non‐viable cells; Q1‐UR=late‐stage apoptotic cells; Q1‐LR=early‐stage apoptotic cells and Q1‐LL=healthy cells.
FITC annexin‐V apoptosis assay: Flow cytometry analysis of apoptotic populations was carried out using the FITC Annexin V Apoptosis Detection Kit with PI (BioLegend®) according to manufacturer's instructions. Briefly, A2780 cells were seeded in 6‐well plates at a concentration of 1.0×10^6 cells per well and the plates were incubated for 24 h at 37 °C and a 5 % CO2 humidified atmosphere. […] Cells were then harvested using trypsin (without EDTA) and stained with PI/Annexin V‐FITC. After staining in the dark for 15 min at room temperature, cell pellets were analysed in a BD Accuri C6 Plus System flow cytometer and data was analysed using the BD Accuri C6 Plus software. These experiments were carried out in duplicate of triplicates in independent experiments; although only selected dot plots are shown, full numerical data and statistical analysis can be found in the Supporting Information.

[2] = tested on: H460 non-small-cell lung cancer cells; experiment: 24-hour MTT chemosensitivity assay with 72-hour recovery, H460; format: cell-based; conditions: for IC50: 24 h exposure, 72 h recovery, MTT, read-out: IC50 values ±SD, H460; for Selectivity index (SI), H460: mean IC50 PNT2 / mean IC50 H460
Procedure: as §1, §2, §3

[3] = Combined results, Average of two experiments

Molecule | IC50 [1] [µM] | Early apoptosis (Q1-LR) (A2780 cells; [3]) [%] | Late apoptosis (Q1-UR) (A2780 cells; [3]) [%] | Necrosis (Q1-UL) (A2780 cells; [3]) [%] | Viable cells (Q1-LL) (A2780 cells; [3]) [%] | Early apoptosis (Q1-LR) (A2780 cells; Experiment 1, Average) [%] | Late apoptosis (Q1-UR) (A2780 cells; Experiment 1, Average) [%] | Necrosis (Q1-UL) (A2780 cells; Experiment 1, Average) [%] | Viable cells (Q1-LL) (A2780 cells; Experiment 1, Average) [%] | Early apoptosis (Q1-LR) (A2780 cells; Experiment 1, Rep 1) [%] | Late apoptosis (Q1-UR) (A2780 cells; Experiment 1, Rep 1) [%] | Necrosis (Q1-UL) (A2780 cells; Experiment 1, Rep 1) [%] | Viable cells (Q1-LL) (A2780 cells; Experiment 1, Rep 1) [%] | Early apoptosis (Q1-LR) (A2780 cells; Experiment 1, Rep 2) [%] | Late apoptosis (Q1-UR) (A2780 cells; Experiment 1, Rep 2) [%] | Necrosis (Q1-UL) (A2780 cells; Experiment 1, Rep 2) [%] | Viable cells (Q1-LL) (A2780 cells; Experiment 1, Rep 2) [%] | Early apoptosis (Q1-LR) (A2780 cells; Experiment 1, Rep 3) [%] | Late apoptosis (Q1-UR) (A2780 cells; Experiment 1, Rep 3) [%] | Necrosis (Q1-UL) (A2780 cells; Experiment 1, Rep 3) [%] | other results
(η^6‐p‐cymene)(TPPTS)Ru(Mnt) [Complex 6] | 1.6 ± 0.3 | 0.1 | 99.8 | 0.0 | 0.2 | 0.1 | 99.6 | 0.0 | 0.2 | 0.1 | 99.6 | 0.0 | 0.2 | 0.1 | 99.6 | 0.0 | 0.2 | 0.2 | 99.5 | 0.0 | Viable cells (Q1-LL) (A2780 cells; Experiment 1, Rep 3): 0.3%; Early apoptosis (Q1-LR) (A2780 cells; Experiment 2, Average): 0.0%; Late apoptosis (Q1-UR) (A2780 cells; Experiment 2, Average): 99.9%; Necrosis (Q1-UL) (A2780 cells; Experiment 2, Average): 0.0%; Viable cells (Q1-LL) (A2780 cells; Experiment 2, Average): 0.1%; Early apoptosis (Q1-LR) (A2780 cells; Experiment 2, Rep 1): 0.0%; Late apoptosis (Q1-UR) (A2780 cells; Experiment 2, Rep 1): 99.9%; Necrosis (Q1-UL) (A2780 cells; Experiment 2, Rep 1): 0.0%; Viable cells (Q1-LL) (A2780 cells; Experiment 2, Rep 1): 0.1%; Early apoptosis (Q1-LR) (A2780 cells; Experiment 2, Rep 2): 0.0%; Late apoptosis (Q1-UR) (A2780 cells; Experiment 2, Rep 2): 99.9%; Necrosis (Q1-UL) (A2780 cells; Experiment 2, Rep 2): 0.0%; Viable cells (Q1-LL) (A2780 cells; Experiment 2, Rep 2): 0.0%; Early apoptosis (Q1-LR) (A2780 cells; Experiment 2, Rep 3): 0.0%; Late apoptosis (Q1-UR) (A2780 cells; Experiment 2, Rep 3): 99.9%; Necrosis (Q1-UL) (A2780 cells; Experiment 2, Rep 3): 0.0%; Viable cells (Q1-LL) (A2780 cells; Experiment 2, Rep 3): 0.1%; IC50 [2]: 2 ± 0.2 µM; Selectivity index (SI), H460 [2]: 0.80
Cc1ccc(C(C)C)cc1.N#CC1=C(C#N)[S][Ru-]([P+](c2ccccc2)(c2ccccc2)c2ccccc2)[S]1 [Complex 8, (η^6‐p‐cymene)(PPh3)Ru(Mnt)] | 2.4 ± 0.2 | 2.5 | 94.4 | 0.5 | 2.6 | 2.6 | 94.3 | 0.4 | 2.7 | 2.6 | 95.4 | 0.3 | 1.7 | 2.2 | 94.5 | 0.4 | 2.8 | 3.0 | 93.0 | 0.6 | Viable cells (Q1-LL) (A2780 cells; Experiment 1, Rep 3): 3.5%; Early apoptosis (Q1-LR) (A2780 cells; Experiment 2, Average): 2.4%; Late apoptosis (Q1-UR) (A2780 cells; Experiment 2, Average): 94.5%; Necrosis (Q1-UL) (A2780 cells; Experiment 2, Average): 0.6%; Viable cells (Q1-LL) (A2780 cells; Experiment 2, Average): 2.5%; Early apoptosis (Q1-LR) (A2780 cells; Experiment 2, Rep 1): 2.0%; Late apoptosis (Q1-UR) (A2780 cells; Experiment 2, Rep 1): 95.1%; Necrosis (Q1-UL) (A2780 cells; Experiment 2, Rep 1): 0.6%; Viable cells (Q1-LL) (A2780 cells; Experiment 2, Rep 1): 2.3%; Early apoptosis (Q1-LR) (A2780 cells; Experiment 2, Rep 2): 2.3%; Late apoptosis (Q1-UR) (A2780 cells; Experiment 2, Rep 2): 94.2%; Necrosis (Q1-UL) (A2780 cells; Experiment 2, Rep 2): 0.8%; Viable cells (Q1-LL) (A2780 cells; Experiment 2, Rep 2): 2.7%; Early apoptosis (Q1-LR) (A2780 cells; Experiment 2, Rep 3): 2.9%; Late apoptosis (Q1-UR) (A2780 cells; Experiment 2, Rep 3): 94.1%; Necrosis (Q1-UL) (A2780 cells; Experiment 2, Rep 3): 0.5%; Viable cells (Q1-LL) (A2780 cells; Experiment 2, Rep 3): 2.5%; IC50 [2]: 5.7 ± 0.8 µM; Selectivity index (SI), H460 [2]: 0.42
